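GI50 marks 50% less growth. Definition used: TGI = concentration required for complete inhibition of growth.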
How the values were obtained:
Assay in all cases: NCI-60 cell line screen, 384-well format
786-0 renal = system: 786-0 renal
A498 renal = system: A498 renal
ACHN renal = system: ACHN renal
BT-549 breast = system: BT-549 breast
CAKI-1 renal = system: CAKI-1 renal
CCRF-CEM leukemia = system: CCRF-CEM leukemia
COLO 205 colon = system: COLO 205 colon
DU-145 prostate = system: DU-145 prostate
EKVX NSCLC = system: EKVX NSCLC
HCT-116 colon = system: HCT-116 colon
HCT-15 colon = system: HCT-15 colon
HL-60(TB) leukemia = system: HL-60(TB) leukemia
HOP-62 NSCLC = system: HOP-62 NSCLC
HOP-92 NSCLC = system: HOP-92 NSCLC
HS 578T breast = system: HS 578T breast
HT29 colon = system: HT29 colon
IGROV1 ovarian = system: IGROV1 ovarian
K-562 leukemia = system: K-562 leukemia
KM12 colon = system: KM12 colon
LOX IMVI melanoma = system: LOX IMVI melanoma
M14 melanoma = system: M14 melanoma
MALME-3M melanoma = system: MALME-3M melanoma
MCF7 breast = system: MCF7 breast
MDA-MB-231 breast = system: MDA-MB-231 breast
MDA-MB-435 melanoma = system: MDA-MB-435 melanoma
MDA-MB-468 breast = system: MDA-MB-468 breast
MOLT-4 leukemia = system: MOLT-4 leukemia
NCI-H226 lung = system: NCI-H226 lung
NCI-H460 NSCLC = system: NCI-H460 NSCLC
NCI-H522 lung = system: NCI-H522 lung
NCI/ADR-RES ovarian = system: NCI/ADR-RES ovarian
OVCAR-5 ovarian = system: OVCAR-5 ovarian
PC-3 prostate = system: PC-3 prostate
RPMI-8226 leukemia = system: RPMI-8226 leukemia
SF-268 CNS = system: SF-268 CNS
SF-539 CNS = system: SF-539 CNS
SK-OV-3 ovarian = system: SK-OV-3 ovarian
SNB-19 CNS = system: SNB-19 CNS
SNB-75 CNS = system: SNB-75 CNS
SR leukemia = system: SR leukemia
SW-620 colon = system: SW-620 colon
T-47D breast = system: T-47D breast
TK-10 renal = system: TK-10 renal
U251 glioblastoma = system: U251 glioblastoma
UACC-257 melanoma = system: UACC-257 melanoma
UACC-62 melanoma = system: UACC-62 melanoma
UO-31 renal = system: UO-31 renal

Cc1cc(Nc2ccc(NC(=O)c3ccc(Nc4ccnc5ccccc45)cc3)cc2)nc(N)n1
GI50 ([…]-0 renal): 872 nM | TGI (786-0 renal): 2240 nM | GI50 (A498 renal): 1500 nM | TGI (A498 renal): 2890 nM | GI50 (ACHN renal): 11200 nM | TGI (ACHN renal): 31000 nM | GI50 (BT-549 breast): 490 nM | TGI (BT-549 breast): 1120 nM | GI50 (CAKI-1 renal): 2960 nM | TGI (CAKI-1 renal): 8450 nM | GI50 (CCRF-CEM leukemia): 191 nM | TGI (CCRF-CEM leukemia): 335 nM | GI50 (COLO 205 colon): 206 nM | TGI (COLO 205 colon): 352 nM | GI50 (DU-145 prostate): 1600 nM | TGI (DU-145 prostate): 2980 nM | GI50 (EKVX NSCLC): 1230 nM | TGI (EKVX NSCLC): 2670 nM | GI50 (HCT-116 colon): 200 nM | TGI (HCT-116 colon): 413 nM | GI50 (HCT-15 colon): 3870 nM | TGI (HCT-15 colon): 13800 nM | GI50 (HL-60(TB) leukemia): 603 nM | TGI (HL-60(TB) leukemia): 1060 nM | GI50 (HOP-62 NSCLC): 695 nM | TGI (HOP-62 NSCLC): 1840 nM | GI50 (HOP-92 NSCLC): 539 nM | TGI (HOP-92 NSCLC): 1520 nM | GI50 (HS 578T breast): 1050 nM | TGI (HS 578T breast): 2240 nM | GI50 (HT29 colon): 319 nM | TGI (HT29 colon): 815 nM | GI50 (IGROV1 ovarian): 4970 nM | TGI (IGROV1 ovarian): 9370 nM | GI50 (K-562 leukemia): 324 nM | TGI (K-562 leukemia): 921 nM | GI50 (KM12 colon): 193 nM | TGI (KM12 colon): 355 nM | GI50 (LOX IMVI melanoma): 166 nM | TGI (LOX IMVI melanoma): 308 nM | GI50 (M14 melanoma): 1550 nM | TGI (M14 melanoma): 2920 nM | GI50 (MALME-3M melanoma): 1000 nM | TGI (MALME-3M melanoma): 2230 nM | GI50 (MCF7 breast): 254 nM | TGI (MCF7 breast): 618 nM | GI50 (MDA-MB-231 breast): 275 nM | TGI (MDA-MB-231 breast): 737 nM | GI50 (MDA-MB-435 melanoma): 1850 nM | TGI (MDA-MB-435 melanoma): 3260 nM | GI50 (MDA-MB-468 breast): 196 nM | TGI (MDA-MB-468 breast): 339 nM | GI50 (MOLT-4 leukemia): 203 nM | TGI (MOLT-4 leukemia): 347 nM | GI50 (NCI-H226 lung): 625 nM | TGI (NCI-H226 lung): 1210 nM | GI50 (NCI-H460 NSCLC): 1670 nM | TGI (NCI-H460 NSCLC): 3150 nM | GI50 (NCI-H522 lung): 217 nM | TGI (NCI-H522 lung): 410 nM | GI50 (NCI/ADR-RES ovarian): > 100000 nM | TGI (NCI/ADR-RES ovarian): > 100000 nM | GI50 (OVCAR-5 ovarian): 1850 nM | TGI (OVCAR-5 ovarian): 3740 nM | GI50 (PC-3 prostate): 894 nM | TGI (PC-3 prostate): 2250 nM | GI50 (RPMI-8226 leukemia): 3110 nM | TGI (RPMI-8226 leukemia): 7870 nM | GI50 (SF-268 CNS): 732 nM | TGI (SF-268 CNS): 1820 nM | GI50 (SF-539 CNS): 552 nM | TGI (SF-539 CNS): 1020 nM | GI50 (SK-OV-3 ovarian): 917 nM | TGI (SK-OV-3 ovarian): 2250 nM | GI50 (SNB-19 CNS): 1240 nM | TGI (SNB-19 CNS): 2510 nM | GI50 (SNB-75 CNS): 2400 nM | TGI (SNB-75 CNS): 4700 nM | GI50 (SR leukemia): 172 nM | TGI (SR leukemia): 313 nM | GI50 (SW-620 colon): 250 nM | TGI (SW-620 colon): 580 nM | GI50 (T-47D breast): 192 nM | TGI (T-47D breast): 334 nM | GI50 (TK-10 renal): 5630 nM | TGI (TK-10 renal): 17500 nM | GI50 (U251 glioblastoma): 195 nM | TGI (U251 glioblastoma): 340 nM | GI50 (UACC-257 melanoma): 556 nM | TGI (UACC-257 melanoma): 1560 nM | GI50 (UACC-62 melanoma): 719 nM | TGI (UACC-62 melanoma): 1940 nM | GI50 (UO-31 renal): 33800 nM | TGI (UO-31 renal): > 100000 nM

CNCc1ccccc1-c1csc([C@@H](C)Nc2nc(C)nc3cc(OC)c(OC)cc23)c1
GI50 ([…]-0 renal): 1240 nM | TGI (786-0 renal): 2500 nM | GI50 (A498 renal): 1030 nM | TGI (A498 renal): 2190 nM | GI50 (ACHN renal): 1510 nM | TGI (ACHN renal): 2840 nM | GI50 (BT-549 breast): 1250 nM | TGI (BT-549 breast): 2500 nM | GI50 (CAKI-1 renal): 1050 nM | TGI (CAKI-1 renal): 2220 nM | GI50 (CCRF-CEM leukemia): 1070 nM | TGI (CCRF-CEM leukemia): 2260 nM | GI50 (COLO 205 colon): 1590 nM | TGI (COLO 205 colon): 2940 nM | GI50 (DU-145 prostate): 1710 nM | TGI (DU-145 prostate): 3200 nM | GI50 (EKVX NSCLC): 1100 nM | TGI (EKVX NSCLC): 2320 nM | GI50 (HCT-116 colon): 1290 nM | TGI (HCT-116 colon): 2560 nM | GI50 (HCT-15 colon): 1500 nM | TGI (HCT-15 colon): 2830 nM | GI50 (HL-60(TB) leukemia): 1080 nM | TGI (HL-60(TB) leukemia): 2270 nM | GI50 (HOP-62 NSCLC): 1480 nM | TGI (HOP-62 NSCLC): 2800 nM | GI50 (HOP-92 NSCLC): 171 nM | TGI (HOP-92 NSCLC): 1290 nM | GI50 (HS 578T breast): 302 nM | TGI (HS 578T breast): 2110 nM | GI50 (HT29 colon): 1560 nM | TGI (HT29 colon): 2910 nM | GI50 (IGROV1 ovarian): 1310 nM | TGI (IGROV1 ovarian): 2590 nM | GI50 (K-562 leukemia): 64 nM | TGI (K-562 leukemia): 723 nM | GI50 (KM12 colon): 914 nM | TGI (KM12 colon): 2140 nM | GI50 (LOX IMVI melanoma): 1650 nM | TGI (LOX IMVI melanoma): 3010 nM | GI50 (M14 melanoma): 1560 nM | TGI (M14 melanoma): 2900 nM | GI50 (MALME-3M melanoma): 1560 nM | TGI (MALME-3M melanoma): 2900 nM | GI50 (MCF7 breast): 1290 nM | TGI (MCF7 breast): 2570 nM | GI50 (MDA-MB-231 breast): 1720 nM | TGI (MDA-MB-231 breast): 3100 nM | GI50 (MDA-MB-435 melanoma): 1570 nM | TGI (MDA-MB-435 melanoma): 2910 nM | GI50 (MDA-MB-468 breast): 287 nM | TGI (MDA-MB-468 breast): 1560 nM | GI50 (MOLT-4 leukemia): 1180 nM | TGI (MOLT-4 leukemia): 2400 nM | GI50 (NCI-H226 lung): 1250 nM | TGI (NCI-H226 lung): 2580 nM | GI50 (NCI-H460 NSCLC): 1580 nM | TGI (NCI-H460 NSCLC): 2930 nM | GI50 (NCI-H522 lung): 1160 nM | TGI (NCI-H522 lung): 2390 nM | GI50 (NCI/ADR-RES ovarian): 1620 nM | TGI (NCI/ADR-RES ovarian): 2990 nM | GI50 (OVCAR-5 ovarian): 1510 nM | TGI (OVCAR-5 ovarian): 2860 nM | GI50 (PC-3 prostate): 1530 nM | TGI (PC-3 prostate): 2970 nM | GI50 (RPMI-8226 leukemia): 643 nM | TGI (RPMI-8226 leukemia): 1980 nM | GI50 (SF-268 CNS): 1610 nM | TGI (SF-268 CNS): 2960 nM | GI50 (SF-539 CNS): 1140 nM | TGI (SF-539 CNS): 2360 nM | GI50 (SK-OV-3 ovarian): 1310 nM | TGI (SK-OV-3 ovarian): 2580 nM | GI50 (SNB-19 CNS): 1450 nM | TGI (SNB-19 CNS): 2770 nM | GI50 (SNB-75 CNS): 1300 nM | TGI (SNB-75 CNS): 2570 nM | GI50 (SR leukemia): 676 nM | TGI (SR leukemia): 1940 nM | GI50 (SW-620 colon): 1360 nM | TGI (SW-620 colon): 2640 nM | GI50 (T-47D breast): 1130 nM | TGI (T-47D breast): 2340 nM | GI50 (TK-10 renal): 1450 nM | TGI (TK-10 renal): 2770 nM | GI50 (U251 glioblastoma): 1440 nM | TGI (U251 glioblastoma): 2750 nM | GI50 (UACC-257 melanoma): 275 nM | TGI (UACC-257 melanoma): 810 nM | GI50 (UACC-62 melanoma): 1700 nM | TGI (UACC-62 melanoma): 3080 nM | GI50 (UO-31 renal): 1520 nM | TGI (UO-31 renal): 2850 nM
